Patent US6413946B1, “Composition for treatment of diabetes and treatment of diabetes” (Meiji Seika Kaisha, Ltd., priority 1997, dated 2002)
Entries after “also recorded” stand apart in the source; their conditions may differ.

How the values were obtained:
STZ diabatic rats = settings: aqueous saline solution as drinking water; 6th week after the administration; cited from earlier work
Na,K-ATPase = settings: cited from earlier work
STZ diabetic rats [1] = experiment: Biochemical test of urine sample of STZ diabetic rats (Example 1); type: in vivo, Wistar rats; settings: oral twice a day for 5 consecutive days, VOSO4 50 mg/kg, FOM-Na 160 mg/kg
Protocol: (§1) In this Example, as animals to be tested, the STZ diabetic rats were prepared from normal Wistar rats having an average body weight of 250 g (male, 6 weeks of age). For this purpose, the normal Wistar rats were made diabetic by a single administration of a dose of 60 mg/kg of STZ intravenously. The normal Wistar rats (male) which are to be subjected to the STZ administration, when they were given 20 g/day of feed and 36 g/day of water, had have such body conditions that average values each of their urine volume output, serum glucose level, serum urea nitrogen level, serum creatinine level, serum total protein level and serum albumin level of the rats are amounting to 18 ml, 152 mg/dl, 18.0 mg/dl, 0.5 mg/dl, 5.63 g/dl and 4.2 g/dl, respectively.
(§2) The STZ diabetic rats as prepared and used in this Example are such those rats (7 weeks of age, 6 rats per group) which had received an intravenous administration of a single dose of 60 mg/kg of STZ and which were confirmed to have been made diabetic with their showing such symptom that their serum glucose level was not less than 400 (mg/dl), when measured by sampling their blood at 1 week lapse from the STZ administration.
(§3) One week after the intravenous administration of single dose 60 mg/kg of STZ, to the male 7-week-old Wistar rats (6 rats per group), which have been confirmed to have the symptoms of diabetes, were orally administered either one or both of vanadyl sulfate VOSO4 at a single dose of 50 mg/kg and fosfomycin disodium salt (abbreviated as FOM-Na) at a single dose of 160 mg/kg, twice a day for 5 consecutive days, by administration of the test compound(s) in the form of the aqueous solutions. The body weight, amounts (volumes) of feed taken, water taken and urine volume output of the rats under test were measured with lapse of time. Further, sampling of blood from the rats was effected at a time of 24 hours after the final administration of the compound(s) tested. Samplings of the urine from the rats were effected over 12 hours after the final administration of the compound(s) tested, and the blood sample and the urine samples as collected were subjected to the following biochemical tests.
(§4) In the biological tests of the blood sample above-mentioned, there were measured the serum glucose level, serum urea nitrogen level, serum creatinine level, serum total protein level and serum albumin level. In the biochemical tests of the urine sample, there were measured the collected amounts of the glucose, total protein and creatinine present in the urine. […] These rats for the comparative purpose were tested similarly to the above tests.

STZ diabetic rats [2] = experiment: Biochemical tests of serum (blood) sample of STZ diabetic rats (Example 1); type: in vivo, Wistar rats; settings: oral twice a day for 5 consecutive days, fosfomycin disodium salt 160 mg/kg, vanadyl sulfate 50 mg/kg, alone or combined
Protocol: In this Example, as animals to be tested, the STZ diabetic rats were prepared from normal Wistar rats having an average body weight of 250 g (male, 6 weeks of age). For this purpose, the normal Wistar rats were made diabetic by a single administration of a dose of 60 mg/kg of STZ intravenously. […]
as §2
One week after the intravenous administration of single dose 60 mg/kg of STZ, to the male 7-week-old Wistar rats (6 rats per group), which have been confirmed to have the symptoms of diabetes, were orally administered either one or both of vanadyl sulfate VOSO4 at a single dose of 50 mg/kg and fosfomycin disodium salt (abbreviated as FOM-Na) at a single dose of 160 mg/kg, twice a day for 5 consecutive days, by administration of the test compound(s) in the form of the aqueous solutions. The body weight, amounts (volumes) of feed taken, water taken and urine volume output of the rats under test were measured with lapse of time. […]

STZ diabetic rats [3] = experiment: Biochemical tests of blood of STZ diabetic rats (Example 2); type: in vivo, Wistar rats; settings: 320 mg/kg oral twice a day for 5 consecutive days
Protocol: To male Wistar 7-week-old rats (7 rats per group), which were intravenously administered with a single dose of 60 mg/kg of STZ and which were confirmed to have been made diabetic after the lapse of 1 week from the STZ administration, fosfomycin disodium salt or fosfomycin calcium salt (FOM-Ca) was orally administered at a dose of 320 mg/kg, twice a day for 5 consecutive days. Then, sample of the blood of each test rat was taken and subjected to the biochemical tests.

STZ diabetic rats [4] = experiment: General observation of body conditions of STZ diabetic rats (Example 1); type: in vivo, Wistar rats; settings: oral twice a day for 5 consecutive days, VOSO4 50 mg/kg, FOM-Na 160 mg/kg
Protocol: as §1, §2, §3, §4

rats = experiment: Toxicity in rats at oral administration; type: in vivo

Compound | Inhibition of Na,K-ATPase (in words) (Na,K-ATPase) | Urine Creatinine (STZ diabetic rats [1]; Day 0) | Urine Glucose (STZ diabetic rats [1]; Day 0) | Urine Total protein (STZ diabetic rats [1]; Day 0) | Urine Creatinine (STZ diabetic rats [1]; Day 5) | Urine Glucose (STZ diabetic rats [1]; Day 5) | Urine Total protein (STZ diabetic rats [1]; Day 5) | Blood Glucose (STZ diabetic rats [3]; Day 0) | Blood Triglyceride (STZ diabetic rats [3]; Day 0) | Blood Albumin (STZ diabetic rats [3]; Day 5) | Blood Creatinine (STZ diabetic rats [3]; Day 5) | Blood Glucose (STZ diabetic rats [3]; Day 5) | Blood Total protein (STZ diabetic rats [3]; Day 5) | Blood Triglyceride (STZ diabetic rats [3]; Day 5) | Body weight (STZ diabetic rats [4]; Day 0) | Feed volume taken (STZ diabetic rats [4]; Day 0) | Urine volume output (STZ diabetic rats [4]; Day 0) | Water volume taken (STZ diabetic rats [4]; Day 0) | Body weight (STZ diabetic rats [4]; Day 5) | Feed volume taken (STZ diabetic rats [4]; Day 5) | also measured
sodium metavanadate | – | – | – | – | – | – | – | – | – | – | – | – | – | – | – | – | – | – | – | – | Serum glucose level (in words) (STZ diabatic rats): returned to the normal level
[Na+].[Na+].[Na+].[O]=[V]([O-])([O-])[O-] [sodium orthovanadate] | strongly inhibit | – | – | – | – | – | – | – | – | – | – | – | – | – | – | – | – | – | – | – | –
C[C@@H]1O[C@@H]1P(=O)([O-])[O-].[Na+].[Na+] [FOM-Na, fosfomycin disodium salt] | – | 12.5 ± 0.7 mg/12 hr | 9.2 ± 0.9 g/12 hr | 4.2 ± 1.1 g/12 hr | 12.5 ± 0.8 mg/12 hr | 8.9 ± 1.3 g/12 hr | 5.6 ± 2.2 g/12 hr | 432 ± 6 mg/dL | 211 ± 30 mg/d1 | 4.0 ± 0.1 g/dL | 0.50 ± 0.00 mg/dL | 345 ± 23 mg/dL | 5.26 ± 0.06 g/dL | 65 ± 3 mg/d1 | 235 ± 4 g | 36 ± 1 g | 115 ± 5 mL | 153 ± 5 g | 282 ± 3 g | 37 ± 1 g | Effect on serum glucose level (in words) (STZ diabetic rats [2]; disodium salt): tendency to improve the serum glucose level; also recorded: action of lowering an unusually high serum glucose level; Effect on serum glucose level / symptoms of diabetes (in words) (STZ diabetic rats [3]; disodium salt): evidently ameliorate an unusually high serum glucose level; also recorded: clearly ameliorate; Urine volume output (STZ diabetic rats [4]; Day 5): 106 ± 7 mL; Water volume taken (STZ diabetic rats [4]; Day 5): 142 ± 16 g
O=S(=O)([O-])[O-].[O]=[V+2] [VOSO4, vanadyl sulfate] | – | 12.5 ± 1.8 mg/12 hr | 9.1 ± 1.4 g/12 hr | 7.2 ± 8.2 g/12 hr | 12.1 ± 2.5 mg/12 hr | 6.8 ± 3.2 g/12 hr | 3.9 ± 0.8 g/12 hr | – | – | – | – | – | – | – | 226 ± 8 g | 35 ± 2 g | 111 ± 10 mL | 140 ± 12 g | 239 ± 9 g | 29 ± 4 g | Toxicity (in words) (rats; oral administration of 50 mg/kg): no toxicity; Effect on serum glucose level (in words) (STZ diabetic rats [2]): action of lowering an unusually high serum glucose level; Urine volume output (STZ diabetic rats [4]; Day 5): 82 ± 21 mL; Water volume taken (STZ diabetic rats [4]; Day 5): 99 ± 24 g
C[C@@H]1O[C@@H]1P(=O)([O-])[O-].[Ca+2] [FOM-Ca, fosfomycin calcium salt] | – | – | – | – | – | – | – | 431 ± 5 mg/dL | 178 ± 18 mg/d1 | 4.1 ± 0.1 g/dL | 0.51 ± 0.01 mg/dL | 336 ± 23 mg/dL | 5.37 ± 0.07 g/dL | 59 ± 7 mg/d1 | – | – | – | – | – | – | LD50 (rats; oral administration): ≥ 3500 mg/kg; Effect on serum glucose level / symptoms of diabetes (in words) (STZ diabetic rats [3]; listed as calcium salt, calcium salt): evidently ameliorate an unusually high serum glucose level; Effect on serum glucose level / symptoms of diabetes (in words) (STZ diabetic rats [3]; listed as fosfomycin calcium salt, calcium salt): clearly ameliorate
C[C@@H]1O[C@@H](O[C@H]2C[C@@H](O)[C@]3(CO)[C@H]4[C@H](O)C[C@]5(C)[C@@H](C6=CC(=O)OC6)CC[C@]5(O)[C@@H]4CC[C@]3(O)C2)[C@H](O)[C@H](O)[C@H]1O [ouabain] | strong inhibitor | – | – | – | – | – | – | – | – | – | – | – | – | – | – | – | – | – | – | – | –
